# Measured values published in patent publication US7982030B2, “Synthesis of selenium-derivatized nucleosides, nucleotides, phosphoramidites, triphosphates and nucleic acids” (Georgia State University Research Foundation, Inc., priority 2001, dated 2011).
# Biological target: T1, DNA polymerase (Klenow Fragment) (Escherichia coli, UniProt P00582)
# T1 construct: using a DNA polymerase (Klenow Fragment)
# Assay: terminal extension on a DNA template: substrate recognition by Klenow
# Type: biochemical
# Settings: 3′-terminal extension on a DNA template
# Experimental: An alternative approach to label RNAs with selenium is based on the RNA 3′-labeling method (FIG. 9). See ref. 33. After a long RNA is prepared by transcription using ordinary NTPs, α-Se-dNTPs is transferred to its 3′-terminus on a DNA template using a DNA polymerase (Klenow Fragment). […] Experiments also reveal that the number of incorporated dNTPs is dependent on the length of the overhanging nucleotides of the template, and the terminal extension reaction giving full-length product with high yields in the presence of high dNTP concentration. The products may be purified by any one of a variety of methods well known in the art, such as for example, preparative anion exchange HPLC, to single nucleotide resolution for RNA as long as 70 nucleotides. (Ref 34). This terminal transfer approach can be very useful for medium size RNAs (up to 80 nucleotides). An analogous approach can be used to prepare Se-DNAs.
# T1 sequence (P00582 324-928): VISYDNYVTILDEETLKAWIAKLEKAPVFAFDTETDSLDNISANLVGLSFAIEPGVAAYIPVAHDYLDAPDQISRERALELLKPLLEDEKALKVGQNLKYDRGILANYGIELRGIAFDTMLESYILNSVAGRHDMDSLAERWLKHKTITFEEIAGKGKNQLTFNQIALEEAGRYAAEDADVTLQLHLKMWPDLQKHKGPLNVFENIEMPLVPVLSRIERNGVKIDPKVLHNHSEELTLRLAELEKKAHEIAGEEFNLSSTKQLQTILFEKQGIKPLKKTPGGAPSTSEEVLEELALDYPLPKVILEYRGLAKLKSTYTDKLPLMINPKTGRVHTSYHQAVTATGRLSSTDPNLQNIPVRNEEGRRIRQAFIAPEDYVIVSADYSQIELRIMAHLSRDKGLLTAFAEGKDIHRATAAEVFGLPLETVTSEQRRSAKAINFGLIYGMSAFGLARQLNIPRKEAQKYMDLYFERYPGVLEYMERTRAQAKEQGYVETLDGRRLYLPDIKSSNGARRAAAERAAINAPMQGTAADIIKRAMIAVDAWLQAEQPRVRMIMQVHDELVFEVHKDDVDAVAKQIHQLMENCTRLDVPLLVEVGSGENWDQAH
compound,measurement,value
Cc1cn(C2CC(O)C(COP(O)(=[Se])OP(=O)(O)OP(=O)(O)O)O2)c(=O)[nH]c1=O (stereo not drawn) [α-Se-TTP 24],recognition as a substrate by Klenow,recognized α-Se-TTP 24 as a substrate
